Data taken from US20180206495A1, “SUBSTITUTED ARYL AND HETEROARYL CARBOXYLIC ACID HYDRAZIDES OR SALTS THEREOF AND USE THEREOF TO INCREASE STRESS TOLERANCE IN PLANTS” (BAYER CROPSCIENCE AKTIENGESELLSCHAFT, priority 2015, published 2018).

How the values were obtained:
[1] = tested on: Zea mays; assay: In vivo analyses Part A: drought stress, spray application, visual damage scoring, Zea mays
Description: (§1) Seeds of monocotyledonous and dicotyledonous crop plants were sown in sandy loam in wood-fiber or plastic pots, covered with soil or sand and cultivated in a greenhouse under good growth conditions. The trial plants were treated at the early leaf stage (BBCH10-BBCH13). To assure uniform water supply before commencement of stress, the potted plants were supplied with water by dam irrigation prior to substance application. The inventive compounds formulated in the form of wettable powders (WP) were sprayed onto the green parts of the plants as an aqueous suspension at an equivalent water application rate of 600 l/ha with addition of 0.2% wetting agent (e.g. agrotin). Substance application was followed immediately by stress treatment of the plants. For this purpose, the wood-fiber pots were transferred in plastic inserts in order to prevent them from subsequently drying out too quickly. Drought stress was induced by gradual drying out under the following conditions: “Day”: 14 hours with illumination at ˜26-30° C. “Night”: 10 hours without illumination at ˜18-20° C. The duration of the respective stress phases was guided mainly by the condition of the stressed control plants. It was ended (by re-irrigating and transfer to a greenhouse with good growth conditions) as soon as irreversible damage was observed on the stressed control plants. The end of the stress phase was followed by an about 4-7-day recovery phase, during which the plants were once again kept under good growth conditions in a greenhouse. The duration of the recovery phase was guided mainly by when the trial plants had attained a state which enabled visual scoring of potential effects, and is therefore variable. Once this juncture was reached, the intensities of damage were scored visually in comparison to untreated, unstressed controls of the same age. The damage intensity was at first assessed in per cent. These values were then used to calculate the efficacy of the test compounds by the following formula: [formula] EF: Efficacy DIs: Damage intensity of the stressed control plants DIt: Damage intensity of the stressed plants treated with test compound The values reported in tables A-1 to A-3 below are mean values from at least one trial with at least two repeats, showing the effects of selected compounds of the general formula (I) under drought stress on various crop plants.

[2] = tested on: Brassica napus; assay: In vivo analyses Part A: drought stress, spray application, visual damage scoring, Brassica napus
Description: as §1

[3] = tested on: Triticum aestivum; assay: In vivo analyses Part A: drought stress, spray application, visual damage scoring, Triticum aestivum
Description: as §1

[4] = tested on: Triticum aestivum; assay: In vivo analyses Part B: drought stress, spray application, appearance vs stressed control in categories, Triticum aestivum; design: key: 0: no positive effect; +: slight positive effect; ++: clear positive effect; +++: strong positive effect; conditions: dosage 25 g/ha
Description: (§2) Seeds of monocotyledonous and dicotyledonous crop plants were sown in sandy loam in plastic pots, covered with soil or sand and cultivated in a greenhouse under good growth conditions. The test plants are treated at the early leaf stage (BBCH10-BBCH13). To assure uniform water supply before commencement of stress, the potted plants were supplied with water by dam irrigation prior to substance application. The inventive compounds were first formulated as wettable powders (WP) or dissolved in a solvent mixture. The further dilution was effected with water supplemented with 0.2% wetting agent (e.g. agrotin). The finished spray liquor was sprayed onto the green parts of the plant at an equivalent water application rate of 600 l/ha. Substance application was followed immediately by stress treatment of the plants. Drought stress was induced by gradual drying out under the following conditions: “Day”: 14 hours with illumination at ˜26-30° C. “Night”: 10 hours without illumination at ˜18-20° C. The duration of the respective stress phases was guided mainly by the condition of the stressed control plants. It was ended (by re-irrigating and transfer to a greenhouse with good growth conditions) as soon as irreversible damage was observed on the stressed control plants. The end of the stress phase was followed by an about 4-7-day recovery phase, during which the plants were once again kept under good growth conditions in a greenhouse. The duration of the recovery phase was guided mainly by when the trial plants had attained a state which enabled visual scoring of potential effects, and was therefore variable. Once this juncture had been reached, the appearance of the plants treated with test substances was recorded in comparison to the stressed control plants by the following categories: • 0 no positive effect • + slight positive effect • ++ clear positive effect • +++ strong positive effect In order to rule out any influence on the effects observed by any fungicidal or insecticidal action of the test compounds, it was additionally ensured that the tests proceeded without fungal infection or insect infestation. The values reported in tables B-1 and B-2 below are mean values of the results from at least three repeats. Effects of selected compounds of the general formula (I) under drought stress according to the following tables B-1 and B-2: […]

[5] = tested on: Brassica napus; assay: In vivo analyses Part B: drought stress, spray application, appearance vs stressed control in categories, Brassica napus; design: key: 0: no positive effect; +: slight positive effect; ++: clear positive effect; +++: strong positive effect; conditions: dosage 25 g/ha
Description: as §2

Structure (SMILES)	EF [%] (ZEAMX) ([1]; dosage 250 g/ha)	EF [%] (BRSNS) ([2]; dosage 25 g/ha)	further results
CN(C)N(Cc1c(Cl)cccc1Cl)C(=O)c1ccccc1C(F)(F)F [A1-7]	>5		
CN(C)N(Cc1ccccn1)C(=O)c1ccccc1C(F)(F)F [A1-21]		>5	
COc1c(C)cnc(CN(C(=O)c2ccccc2C(F)(F)F)N(C)C)c1C [A1-37]			EF [%] (TRZAS) ([3]; dosage 250 g/ha): >5%; EF [%] (BRSNS) ([2]; dosage 2.5 g/ha): >5%
CN(C)N(Cc1ccc(Br)cc1F)C(=O)c1ccccc1C(F)(F)F [A1-44]	>5		
COc1cc(Cl)c(CN(C(=O)c2ccccc2C(F)(F)F)N(C)C)cc1OC [A1-147]	>5	>5	
CN(C)N(CCc1ccccc1Cl)C(=O)c1ccccc1C(F)(F)F [A1-612]	>5		Effect (TRZAS) [4]: +; Effect (BRSNS) [5]: +
CN(C)N(CCc1cccc(Cl)c1)C(=O)c1ccccc1C(F)(F)F [A1-613]	>5		
CN(C)N(Cc1ccccc1Cl)C(=O)c1cc(Cl)ccc1Cl [A7-1]		>5	
CN(C)N(Cc1ccccc1F)C(=O)c1cc(Cl)ccc1Cl [A7-11]		>5	
CN(C)N(Cc1ccc2ccccc2n1)C(=O)c1cc(Cl)ccc1Cl [A7-122]		>5	
CN(C)N(CCc1ccc(C(C)(C)C)cc1)C(=O)c1cc(Cl)ccc1Cl [A7-639]	>5	>5	
COc1ccccc1C(=O)N(Cc1ccccc1Cl)N(C)C [A8-1]			EF [%] (BRSNS) ([2]; dosage 2.5 g/ha): >5%
COc1ccccc1C(=O)N(Cc1ccccn1)N(C)C [A8-21]	>5	>5	EF [%] (TRZAS) ([3]; dosage 250 g/ha): >5%
CN(C)N(Cc1ccc(Cl)cc1)C(=O)c1ccc(Cl)cc1 [A9-3]	>5		EF [%] (BRSNS) ([2]; dosage 250 g/ha): >5%
Cc1c(OCC(F)(F)F)ccnc1CN(C(=O)c1ccc(Cl)cc1)N(C)C [A9-144]			EF [%] (ZEAMX) ([1]; dosage 25 g/ha): >5%
CN(C)N(CCc1ccc(Cl)cc1)C(=O)c1ccc(Cl)cc1 [A9-614]			EF [%] (BRSNS) ([2]; dosage 250 g/ha): >5%
CN(C)N(CCc1ccc(Cl)cc1Cl)C(=O)c1ccc(Cl)cc1 [A9-615]	>5		
CN(C)N(CCc1ccc(C(C)(C)C)cc1)C(=O)c1ccc(Cl)cc1 [A9-639]	>5		
Cc1ccc(CCN(C(=O)c2ccc(Cl)cc2)N(C)C)cc1C [A9-663]	>5		
CN(C)N(Cc1c(Cl)cccc1Cl)C(=O)c1ccccc1Cl [A10-7]			EF [%] (BRSNS) ([2]; dosage 250 g/ha): >5%
COc1cc(OC)nc(CN(C(=O)c2ccccc2Cl)N(C)C)n1 [A10-30]			EF [%] (TRZAS) ([3]; dosage 250 g/ha): >5%
COc1c(C)cnc(CN(C(=O)c2ccccc2Cl)N(C)C)c1C [A10-37]	>5		
CN(C)N(Cc1ccccc1C#N)C(=O)c1ccccc1Cl [A10-61]		>5	
Cc1c(OCC(F)(F)F)ccnc1CN(C(=O)c1ccccc1Cl)N(C)C [A10-144]			EF [%] (TRZAS) ([3]; dosage 250 g/ha): >5%
CN(C)N(Cc1ccc(Cl)cc1Cl)C(=O)c1ccc(Cl)cc1Cl [A12-5]		>5	
COc1c(C)cnc(CN(C(=O)c2ccc(Cl)cc2Cl)N(C)C)c1C [A12-37]		>5	EF [%] (TRZAS) ([3]; dosage 25 g/ha): >5%
CN(C)N(Cc1cc(C(F)(F)F)ccc1Cl)C(=O)c1ccc(Cl)cc1Cl [A12-86]		>5	
CN(C)N(Cc1ncc(C(F)(F)F)cc1Cl)C(=O)c1ccc(F)cc1C(F)(F)F [A14-36]	>5		
CN(C)N(Cc1c(Cl)cc(C(F)(F)F)c(F)c1F)C(=O)c1ccc(F)cc1C(F)(F)F [A14-608]			Effect (TRZAS) [4]: +; Effect (BRSNS) [5]: +
